Reference: US11464782B2, “Method of treating pain or interstitial cystitis using indole compound” (Japan Tobacco Inc., priority 2018, dated 2022)
Where a name gives a salt, the structure may show the parent alone.

Assays:
[1] = test system: NGF-induced mechanical hyperalgesia; experiment: NGF-induced mechanical hyperalgesia in rats (pressure analgesy-meter, paw withdrawal threshold); format: in vivo, rat
Method: In order to induce a pain-related behavior (withdrawal behavior), NGF was injected into the plantar area of the left hind paw of rats and the thermal latencies/mechanical thresholds were measured. The effects of Compound A on these withdrawal behaviors were investigated. At 2 days before the injection of NGF, the thermal latencies or mechanical thresholds were measured for acclimation to the experimental environment. On the day before injection of NGF, body weights and values of the thermal latencies or mechanical thresholds were obtained. 50 μL of NGF solution was injected intraplantar to left hind paw of rats. 0.5 μg/site of NGF was selected in the evaluation of thermal stimuli and 1 μg/site was selected in that of mechanical stimuli. A monohydrochloride of Compound A (1, 3, or 10 mg/kg) was administered orally at the same time as the NGF injection. The latencies to thermal stimuli were measured at 3 and 6 hours after injection of NGF solution, and the thresholds to mechanical stimuli were measured at 1, 3 and 6 hours after injection of NGF solution. The evaluation was performed as a blind test of each group. The mechanical threshold was measured using a pressure analgesy-meter. A mechanical stimulus (pressure) increased at a constant rate was added to the hind paw, and the pressure under load until animals withdrew its hind paw or vocalization was recorded as the mechanical threshold (mmHg).

[2] = test system: NGF-induced thermal hyperalgesia; experiment: NGF-induced thermal hyperalgesia in rats (plantar test, paw withdrawal latency); format: in vivo, rat
Method: In order to induce a pain-related behavior (withdrawal behavior), NGF was injected into the plantar area of the left hind paw of rats and the thermal latencies/mechanical thresholds were measured. The effects of Compound A on these withdrawal behaviors were investigated. At 2 days before the injection of NGF, the thermal latencies or mechanical thresholds were measured for acclimation to the experimental environment. On the day before injection of NGF, body weights and values of the thermal latencies or mechanical thresholds were obtained. 50 μL of NGF solution was injected intraplantar to left hind paw of rats. 0.5 μg/site of NGF was selected in the evaluation of thermal stimuli and 1 μg/site was selected in that of mechanical stimuli. A monohydrochloride of Compound A (1, 3, or 10 mg/kg) was administered orally at the same time as the NGF injection. The latencies to thermal stimuli were measured at 3 and 6 hours after injection of NGF solution, and the thresholds to mechanical stimuli were measured at 1, 3 and 6 hours after injection of NGF solution. The evaluation was performed as a blind test of each group. The thermal latency was measured using a plantar test apparatus. An infrared heat stimuli was delivered to the plantar area of the hind paw and the time to withdraw the paw from the heat source was recorded automatically as the thermal latency. The measurement was performed 5 times for both hind paws of each animal, the averages of the last 3 values in each hind paw were accounted as the thermal latencies of each animal. The measurement for acclimation was performed only 3 times.

[3] = 1 mg/kg oral, right hind paw (uninjected side), 3 hr
[4] = 1 mg/kg oral, right hind paw (uninjected side), 6 hr
[5] = 1 mg/kg oral, right hind paw (uninjected side), pre
[6] = 3 mg/kg oral, right hind paw (uninjected side), 3 hr
[7] = 3 mg/kg oral, right hind paw (uninjected side), 6 hr
[8] = 3 mg/kg oral, right hind paw (uninjected side), pre
[9] = 10 mg/kg oral, right hind paw (uninjected side), 3 hr
[10] = 10 mg/kg oral, right hind paw (uninjected side), 6 hr
[11] = 10 mg/kg oral, right hind paw (uninjected side), pre

C[C@@H](C(=O)N(C)c1ccc2cc(-c3n[nH]c4c3CCC(C)(C)C4)[nH]c2c1)N1CCOCC1 [Compound A•HCl]
Paw Withdrawal Threshold (mmHg) ([1]; 1 mg/kg oral, left hind paw (injected side, NGF 1 μg/site), 1 hr): 107 ± 17 mmHg | Paw Withdrawal Threshold (mmHg) ([1]; 1 mg/kg oral, left hind paw (injected side, NGF 1 μg/site), 3 hr): 104 ± 20 mmHg | Paw Withdrawal Threshold (mmHg) ([1]; 1 mg/kg oral, left hind paw (injected side, NGF 1 μg/site), 6 hr): 90 ± 11 mmHg | Paw Withdrawal Threshold (mmHg) ([1]; 1 mg/kg oral, left hind paw (injected side, NGF 1 μg/site), Pre): 126 ± 21 mmHg | Paw Withdrawal Threshold (mmHg) ([1]; 1 mg/kg oral, right hind paw (uninjected side), 1 hr): 134 ± 16 mmHg | Paw Withdrawal Threshold (mmHg) [1, 3]: 135 ± 21 mmHg | Paw Withdrawal Threshold (mmHg) [1, 4]: 133 ± 9 mmHg | Paw Withdrawal Threshold (mmHg) [1, 5]: 132 ± 15 mmHg | Paw Withdrawal Threshold (mmHg) ([1]; 3 mg/kg oral, left hind paw (injected side, NGF 1 μg/site), 1 hr): 118 ± 17 mmHg | Paw Withdrawal Threshold (mmHg) ([1]; 3 mg/kg oral, left hind paw (injected side, NGF 1 μg/site), 3 hr): 121 ± 21 mmHg | Paw Withdrawal Threshold (mmHg) ([1]; 3 mg/kg oral, left hind paw (injected side, NGF 1 μg/site), 6 hr): 106 ± 11 mmHg | Paw Withdrawal Threshold (mmHg) ([1]; 3 mg/kg oral, left hind paw (injected side, NGF 1 μg/site), Pre): 152 ± 26 mmHg | Paw Withdrawal Threshold (mmHg) ([1]; 3 mg/kg oral, right hind paw (uninjected side), 1 hr): 133 ± 19 mmHg | Paw Withdrawal Threshold (mmHg) [1, 6]: 141 ± 10 mmHg | Paw Withdrawal Threshold (mmHg) [1, 7]: 144 ± 23 mmHg | Paw Withdrawal Threshold (mmHg) [1, 8]: 148 ± 25 mmHg | Paw Withdrawal Threshold (mmHg) ([1]; 10 mg/kg oral, left hind paw (injected side, NGF 1 μg/site), 1 hr): 130 ± 20 mmHg | Paw Withdrawal Threshold (mmHg) ([1]; 10 mg/kg oral, left hind paw (injected side, NGF 1 μg/site), 3 hr): 134 ± 22 mmHg | Paw Withdrawal Threshold (mmHg) ([1]; 10 mg/kg oral, left hind paw (injected side, NGF 1 μg/site), 6 hr): 130 ± 18 mmHg | Paw Withdrawal Threshold (mmHg) ([1]; 10 mg/kg oral, left hind paw (injected side, NGF 1 μg/site), Pre): 136 ± 17 mmHg | Paw Withdrawal Threshold (mmHg) ([1]; 10 mg/kg oral, right hind paw (uninjected side), 1 hr): 144 ± 14 mmHg | Paw Withdrawal Threshold (mmHg) [1, 9]: 139 ± 17 mmHg | Paw Withdrawal Threshold (mmHg) [1, 10]: 139 ± 13 mmHg | Paw Withdrawal Threshold (mmHg) [1, 11]: 139 ± 17 mmHg | Paw Withdrawal Latency ([2]; 1 mg/kg oral, left hind paw (injected side, NGF 0.5 μg/site), 3 hr): 10.0 ± 2.6 s | Paw Withdrawal Latency ([2]; 1 mg/kg oral, left hind paw (injected side, NGF 0.5 μg/site), 6 hr): 8.7 ± 2.0 s | Paw Withdrawal Latency ([2]; 1 mg/kg oral, left hind paw (injected side, NGF 0.5 μg/site), pre): 11.4 ± 1.2 s | Paw Withdrawal Latency [2, 3]: 10.9 ± 1.4 s | Paw Withdrawal Latency [2, 4]: 10.8 ± 2.4 s | Paw Withdrawal Latency [2, 5]: 11.6 ± 1.1 s | Paw Withdrawal Latency ([2]; 3 mg/kg oral, left hind paw (injected side, NGF 0.5 μg/site), 3 hr): 10.3 ± 1.6 s | Paw Withdrawal Latency ([2]; 3 mg/kg oral, left hind paw (injected side, NGF 0.5 μg/site), 6 hr): 9.9 ± 1.5 s | Paw Withdrawal Latency ([2]; 3 mg/kg oral, left hind paw (injected side, NGF 0.5 μg/site), pre): 11.2 ± 1.9 s | Paw Withdrawal Latency [2, 6]: 12.3 ± 2.2 s | Paw Withdrawal Latency [2, 7]: 11.9 ± 1.9 s | Paw Withdrawal Latency [2, 8]: 11.6 ± 1.5 s | Paw Withdrawal Latency ([2]; 10 mg/kg oral, left hind paw (injected side, NGF 0.5 μg/site), 3 hr): 11.6 ± 2.4 s | Paw Withdrawal Latency ([2]; 10 mg/kg oral, left hind paw (injected side, NGF 0.5 μg/site), 6 hr): 11.3 ± 1.4 s | Paw Withdrawal Latency ([2]; 10 mg/kg oral, left hind paw (injected side, NGF 0.5 μg/site), pre): 12.0 ± 1.1 s | Paw Withdrawal Latency [2, 9]: 11.9 ± 2.7 s | Paw Withdrawal Latency [2, 10]: 11.5 ± 1.2 s | Paw Withdrawal Latency [2, 11]: 11.9 ± 1.2 s
